Tests used:
[1] = tested on: A2780 ovarian cancer cells; assay: PrestoBlue cell viability assay; assay type: cell-based, human; conditions: 72 hrs treatment, n=3 experiments
Description: The effects of Enone-1 and Enone-2 on cancer cells were confirmed using a second methodology, namely the PrestoBlue assay (PrestoBlue™ Cell Viability Reagent, Thermo Fisher, Catalog number: A13261), a cell permeable resazurin-based solution that functions as a cell viability indicator. A2780 ovarian cancer cells were plated as described above for the MTT assays and Enone drugs were added at increasing concentrations as indicated in FIG. 2. Cell viability was determined 72 hrs later following the addition of PrestoBlue, according to the manufacturer's instructions (Thermo Fisher).

p53 [2] = assay: siRNA knockdown of Chek2 or Rpl11 and drug-induced p53 activation in A2780 cells; assay type: cell-based, human; conditions: A2780 transiently transfected with siRNAs
Description: (§1) FIG. 9. […] A2780 cells were cultured for 6 hrs in the presence of drug concentrations as indicated. (B) Effects of siRNA targeting RPL11 (siRPL11), Chek2 (siChek2) or the unrelated luciferase (Luci) genes on RPL11 and Chek2 mRNA levels quantified by RT-PCR. (C) Effects of siRpl11 on Enone-2 and oxaliplatin (OXA)-induced p53 activation. Expression levels relative to GAPDH are indicated; untreated controls (CNT) were given the arbitrary value of 1. […] Expression levels relative to GAPDH are indicated; untreated controls (CNT) were given the arbitrary value of 1.
To further validate this observation, A2780 cells were transiently transfected with siRNAs targeting Chek2 which is required for DDR-induced p53, or Rpl11 which is required for RS-mediated p53 activation. The efficacy and specificity of the knockdowns were confirmed by RT-qPCR (FIG. 9B).

[3] = tested on: A2780 ovarian carcinoma cells; assay: MTT conversion assay, A2780; assay type: cell-based, human; conditions: 48 hrs treatment
Description: (§2) In particular, Enone-1 and Enone-2 were tested for cytotoxic activity in 17 cell lines representing a broad spectrum of human tumors. They include human colorectal carcinoma (Caco2, RKO, HCT15, HT29), liver (HepG2), lung (A549), ovarian carcinoma (A2780, 2780CP, AGE60, SKOV3), anaplastic large cell lymphoma (Mac1 and Mac2a), breast carcinoma (MDA-MB-231), cervical (HeLa), bladder cancer (VM-CUB-1), melanoma (BRO), and multiple myeloma (MR20).
(§3) Each assay was performed in triplicate and repeated in 2-3 independent experiments. Specifically, to measure cell survival, 20 μl of 10 mg/ml MTT (3-([…])-2,5-diphenyl tetrazolium bromide; Sigma) was added to each well and the plates were incubated at 37° C. in 5% CO2 for 3 hours. The supernatant was removed and the formed crystals were dissolved in 200 μl dimethyl sulphoxide. The plates were then analysed at 450 nm on a plate reader. Growth inhibition (reduction in survival) was calculated by expressing the differences in optical densities between treatment wells and control wells as a percentage of the control.

[4] = tested on: 2780CP, a cis-platin-resistant derivative of A2780; assay: MTT conversion assay, 2780CP; assay type: cell-based, human; conditions: for IC50: 2780CP, ovarian, cis-platin-resistant, 48 hrs treatment, MTT; for sensitivity of 2780CP cells compared with cis-platin-sensitive A2780 cells: MTT conversion assays
Description: as §2, §3
Resistance to platinum-based chemotherapy is a major problem in oncology that impacts therapeutic options and limits patient survival. This is relevant to several types of malignancy, including ovarian cancer where platinum resistance frequently occurs. As Enone-1 and 2 show efficacy in reducing survival of A2780 ovarian carcinoma cells, the drugs were also tested in 2780CP, a cis-platin-resistant derivative of A2780 [13].

[5] = tested on: SKOV3 ovarian carcinoma cells; assay: MTT conversion assay, SKOV3; assay type: cell-based, human
Description: as §2, §3

[6] = tested on: AGE60 ovarian carcinoma cells; assay: MTT conversion assay, AGE60; assay type: cell-based, human; conditions: 48 hrs treatment
Description: as §2, §3

[7] = tested on: RKO colorectal carcinoma cells; assay: MTT conversion assay, RKO; assay type: cell-based, human; conditions: colon, 48 hrs treatment
Description: as §2, §3

[8] = tested on: HT29 colorectal carcinoma cells; assay: MTT conversion assay, HT29; assay type: cell-based, human; conditions: 48 hrs treatment
Description: as §2, §3

[9] = tested on: HCT15 colorectal carcinoma cells; assay: MTT conversion assay, HCT15; assay type: cell-based, human; conditions: 48 hrs treatment
Description: as §2, §3

HepG2 liver cells = assay: MTT conversion assay, HepG2; assay type: cell-based, human; conditions: 48 hrs treatment
Description: as §2, §3

A549 lung cells = assay: MTT conversion assay, A549; assay type: cell-based, human; conditions: 48 hrs treatment
Description: as §2, §3

[10] = tested on: MDA-MB-231 breast carcinoma cells; assay: MTT conversion assay, MDA-MB-231; assay type: cell-based, human; conditions: 48 hrs treatment
Description: as §2, §3

[11] = tested on: MR20 multiple myeloma cells; assay: MTT conversion assay, MR20; assay type: cell-based, human; conditions: 48 hrs treatment
Description: as §2, §3

[12] = tested on: HeLa cervical carcinoma cells; assay: MTT conversion assay, HeLa; assay type: cell-based, human; conditions: 48 hrs treatment
Description: as §2, §3

[13] = tested on: VM-CUB-1 bladder cancer cells; assay: MTT conversion assay, VM-CUB-1; assay type: cell-based, human; conditions: 48 hrs treatment
Description: as §2, §3

BRO melanoma cells = assay: MTT conversion assay, BRO; assay type: cell-based, human; conditions: 48 hrs treatment
Description: as §2, §3

[14] = tested on: MB49 mouse bladder carcinoma cells; assay: MTT assay, MB49; assay type: cell-based; conditions: 48 hrs
Description: FIG. 5: Effects of enone compounds on mouse tumor growth.
as §3
First, the impact of Enone-1 and Enone-2 on the survival of MB49 cells was verified by MTT assays performed as described in FIG. 1.

p53 [15] = assay: p53 immunoblot in A2780 cells; assay type: cell-based, human; conditions: 2.5 μM or increasing concentrations, 6 hrs or time course
Description: (§4) FIG. 8: Enones induce the p53 pathway. […] Cell lysates were analyzed for p53 and GAPDH (loading control). (B) A2780 cells were cultured in the presence or absence of 2.5 μM for the indicated time points before being analyzed for p53 and GAPDH levels. (C) Treatment of A2780 cells with 2.5 μM Enone-2 results in the up-regulation of p53-regulated genes (*p<0.05; **p<0.01; ***p<0.001, n=4). (D) Induction of p53 accumulation in AGE60 ovarian carcinoma cells following 6 or 14 hr exposure to 2.5 μM Enone-2. (E) Enone-1 induces the p53 pathway in A2780 cells which were cultured in the presence of 2.5 μM of the drug and analyzed as in (B). (F) Treatment of A2780 cells with 2.5 μM Enone-2 results in the up-regulation of p53-regulated genes (*p<0.05; **p<0.01; ***p<0.001, n=3).
(§5) The effects of Enone-2 on p53 and p53-dependent transcription of cell cycle and cell death-associated genes was confirmed by immunoblotting for p53 and by reverse transcription qPCR (RT-qPCR) for mdm2, p21, bax and bbc3/puma, established p53 target genes.

γH2Ax = γH2Ax immunoblot (DNA damage response marker) in A2780 cells; assay type: cell-based, human; conditions: 6 hrs, increasing concentrations, relative to untreated controls
Description: as §1

[16] = tested on: Caco-2 colorectal carcinoma cells; assay: MTT conversion assay, Caco-2; assay type: cell-based; conditions: Homo sapiens, Caco-2, colon, 48 hrs treatment
Description: as §2, §3

[17] = tested on: mdm2, p21, bax and bbc3/puma; assay: RT-qPCR of p53 target genes in A2780 cells; assay type: cell-based, human; conditions: 2.5 μM
Description: as §4, §5

O=C1[O][Pt]2([NH][C@@H]3CCCC[C@H]3[NH]2)[O]C1=O [oxaliplatin, reference compound]
IC50 [1]: 0.27 µM | effect of Chek2 or Rpl11 siRNA knockdown on drug-induced p53 activation (p53 [2]): depletion of Rpl11 reduced oxaliplatin-induced p53 accumulation

N.N.[Cl][Pt][Cl] [cis-platin, reference compound]
IC50 [3]: 1.4 µM | IC50 [4]: 10 µM | sensitivity of 2780CP cells compared with cis-platin-sensitive A2780 cells [4]: less sensitive | IC50 ([5]; 48 hrs treatment): 4 µM | IC50 [6]: 5 µM | IC50 [7]: 19 µM | IC50 ([8]; HT29, colon): 13.5 µM | IC50 ([9]; HCT15, colon): 14 µM | IC50 (HepG2 liver cells): 9 µM | IC50 (A549 lung cells): 7.5 µM | IC50 [10]: 32 µM | IC50 [11]: ~5.8 µM | IC50 ([11]; listed as Cis-platin): 5.8 µM | IC50 [12]: ~31 µM | IC50 ([12]; listed as Cis-platin): 31 µM | IC50 [13]: 7.9 µM | IC50 (BRO melanoma cells): 15.2 µM | IC50 [1]: 1.4 µM | IC50 [14]: 3.8 µM | p53 accumulation (immunoblot) (p53 [15]): less effective | γH2Ax induction (marker of DDR) (γH2Ax): induced γH2Ax | effect of Chek2 or Rpl11 siRNA knockdown on drug-induced p53 activation (p53 [2]): Chek2 knockdown ameliorated cis-platin-induced p53 activation

C[C@@]1(O)C=CC(=O)C1c1ccc2ccccc2c1 (stereo in doubt) [Enone-1, 4-hydroxy-4-methyl-5-(naphthalen-2-yl)cyclopent-2-en-1-one]
IC50 ([3]; Homo sapiens): 0.6 µM | IC50 ([4]; Homo sapiens, A2780): 0.75 µM | sensitivity of 2780CP cells compared with cis-platin-sensitive A2780 cells [4]: nearly as sensitive | sensitivity of 2780CP cells compared with cis-platin-sensitive A2780 cells ([4]; listed as Enone1): remain sensitive | IC50 ([5]; Homo sapiens, SK-OV-3, 48 hrs treatment): 0.8 µM | IC50 ([6]; Homo sapiens, Ovarian carcinoma cell): 1 µM | IC50 ([7]; Homo sapiens): 1.3 µM | IC50 ([8]; Homo sapiens, HT-29, HT29, colon): 1.2 µM | IC50 [16]: 1.8 µM | IC50 ([9]; Homo sapiens, HCT-15, HCT15, colon): 1.2 µM | IC50 (HepG2 liver cells; Homo sapiens): 3.8 µM | IC50 (A549 lung cells; Homo sapiens): 1.7 µM | IC50 ([11]; Homo sapiens, Multiple myeloma cell): 0.05 µM | IC50 ([13]; Homo sapiens): 1.2 µM | IC50 (BRO melanoma cells; Homo sapiens): 3.9 µM | IC50 ([1]; Homo sapiens): 0.2 µM | IC50 [14]: 1.4 µM | p53 accumulation (immunoblot) (p53 [15]): induce p53 | mdm2, p21, bax and bbc3/puma mRNA (p53-dependent gene expression) [17]: induce p53 and p53-dependent gene expression
